Experimental data taken from patent US12233088B2 (Alexion Pharmaceuticals, Inc., priority 2017, dated 2025).
Like-named read-outs stand apart in the source and are kept apart here.

What was measured:
patients with WD = tested on: patients with WD
Description: Example 1 was an open-label multicenter single-arm phase 2 trial conducted in 28 adults with a diagnosis of WD established by a Leipzig score of ≥4.
Data were collected from the first 72 weeks of the extension period for the following parameters: (a) NCC levels, corrected for bound copper contained in tetrathiomolybdate-copper-albumin complexes (NCCcorrected); (b) Liver status, measured using standard laboratory measures and also by Model for End-Stage Liver Disease (MELD) score (based on bilirubin, creatinine and international normalized ratio [INR]); (c) Patient-reported disability using Unified Wilson Disease Rating Scale (UWDRS) part II, and neurological status using UWDRS part III; and (d) Safety is shown below.

[1] = tested on: Wilson disease patients with and without cirrhosis
Experimental: Mortality in Wilson disease is usually secondary to decompensated hepatic cirrhosis and liver failure; therefore, liver function is an important factor in determining appropriate treatment regimens. The outcome of patients with and without cirrhosis using in the patient pool of Example 1, supplemented with week 48 data generated in the 3-year extension phase of the initial trial, was analyzed.
For the analyses described in this example, patients were characterized as having cirrhosis based on medical history (biopsy or imaging) or based on estimates of AST to Platelet Ratio Index (APRI) (AST refers to aspartate aminotransferase). Summary statistics were calculated for Baseline demographics, NCCcorr levels, ALT levels, MELD and modified Nazer scores, Albumin concentration, International normalized ratio (INR), Disability and neurological status using the unified Wilson's disease rating scale, and adverse events (AEs). […] Patient flow for the extension study is depicted in FIG. 12.

[2] = tested on: patients with Wilson disease
Experimental: Changes in neurological status were characterized using the Unified Wilson's Disease Rating Scale (UWDRS).
Patients were excluded if they had decompensated hepatic cirrhosis, a model for end-stage liver disease (MELD) score >11, or a modified Nazer score (revised King's score)>6.
The 24-week, phase 2, open-label study was conducted in Europe and the USA. […] Thereafter, dosing was tailored according to laboratory (including NCC concentrations adjusted for plasma molybdenum) and clinical assessments (maximum daily dose administered: 120 mg).
Disability and neurological status were assessed using parts II and III, respectively, of the UWDRS at baseline and weeks 4, 8, 12, 18, and 24: Disability (part II): 10-item patient-reported questionnaire (range for total scores: 0-40; higher scores indicate greater disability). Neurological status (part III): 23-item clinician-assessed score (range for total scores: 0-143; higher scores indicate worse neurological status). Data (total scores for UWDRS parts II and III, and AEs) are summarized briefly for context in Results.
UWDRS neurological status scores at baseline, week 24, and change from baseline to week 24 were calculated for: any individual item experienced by at least 50% of patients; and for item groups (i.e. collections of individual items that could be considered to represent particular patient phenotypes [Table 11]).
Least-squares mean (standard error [SE], 95% confidence intervals [CIs]) values were calculated for changes from baseline for UWDRS total scores using a mixed-model repeated-measures analysis; significance was assessed using two-sided p values. To investigate and quantify the relationship between UWDRS total scores for parts II and III, a random coefficients analysis was conducted using each patient's scores from all study visits. Summary statistics were calculated for other outcomes.

[3] = core study, patients without cirrhosis
[4] = extension phase, with cirrhosis
[5] = of 22 patients, baseline to week 24

## C[N+](C)(C)CCO.C[N+](C)(C)CCO.[SH-].[SH-].[S]=[Mo]=[S] [WTX101, bis-choline tetrathiomolybdate]
Patients with WD; SAE after week 24
  Relationship to the study drug as deemed by the investigator: Acute lower back pain (week 37): Unrelated
  Relationship to the study drug as deemed by the investigator: Dizziness (week 113): Possible
  Relationship to the study drug as deemed by the investigator: Loss of consciousness (week 113): Possible
  Relationship to the study drug as deemed by the investigator: Mania (week 38): Unlikely
  Relationship to the study drug as deemed by the investigator: Neutropenia (week 36): Possible
Patients with WD; SAE after week 24, likely due to disease progression
  Relationship to the study drug as deemed by the investigator: Exacerbation of WD (week 46): Possible
Patients with WD; after week 24
  SAE Acute lower back pain (week 37), number of patients: 1
  SAE Dizziness (week 113), number of patients: 1
  SAE Exacerbation of WD (week 46), number of patients: 1
  SAE Loss of consciousness (week 113), number of patients: 1
  SAE Mania (week 38), number of patients: 1
  number of patients with ≥1 SAEs: 5 patients
  number of serious adverse events: 6 events in
Patients with WD; after week 24, grade 1, normalized with dose reduction
  SAE Neutropenia (week 36), number of patients: 1
Patients with WD; beginning of extension period (week 24), N=22
  INR, mean ± standard error: 1.06 ± 0.0
Patients with WD; beginning of extension period (week 24), N=22, baseline 3.6 ± 0.4
  NCCcorrected, mean ± standard error: 0.9 ± 0.2 µM
Patients with WD; beginning of extension period (week 24), N=22, baseline 6.6 ± 1.9
  UWDRS part II score, mean ± standard error: 4.1 ± 1.8
Patients with WD; beginning of extension period (week 24), N=22, baseline 7.7 ± 0.4
  MELD score, mean ± standard error: 7.2 ± 0.4
Patients with WD; beginning of extension period (week 24), N=22, baseline 22.8 ± 4.0
  UWDRS part III score, mean ± standard error: 16.6 ± 3.9
Patients with WD; beginning of extension period (week 24), N=22, baseline 39.2 ± 1.0
  Albumin, mean ± standard error: 40.9 ± 0.7 g/L
Patients with WD; beginning of extension period (week 24), N=22, baseline 42.6 ± 6.2
  ALT, mean ± standard error: 36.8 ± 3.9 U/L
Patients with WD; between week 24 and 72
  AEs considered unrelated or unlikely related to therapy: 89%
  AEs mild or moderate: 89%
Patients with WD; between week 24 and week 72
  mean INR, albumin, ALT levels and MELD score (liver function): improved or unchanged
Patients with WD; extension period
  reversible ALT elevations requiring dose adjustments: not observed
Patients with WD; over the follow-up period
  hemoglobin measurements below the normal range: 5.2%
Patients with WD; over the follow-up period, none below 100 g/L
  patients with low hemoglobin at some point: 7 patients
Patients with WD; week 24 to 72
  mean UWDRS disability score and neurological signs score: continued improvements
Patients with WD; week 36 and 72, responded to dose reduction
  subjects with neutropenia accompanied by mild anemia and low NCC levels: Two
Patients with WD; weeks 1-24 to weeks 25-72
  decrease in number of reported AEs and SAEs: around 50%
[1]; core study, patients with cirrhosis
  patients with ALT elevations requiring dose adjustments: five
[1]; [3]
  patients with ALT elevations requiring dose adjustments: seven
  patients with study withdrawal associated with ALT elevations: three
[1]; core study, with cirrhosis
  patients with adverse events (AEs): 10
  patients with increased ALT and GGT levels (each): three
  patients with increased AST levels: four
[1]; core study, without cirrhosis
  patients with adverse events (AEs): 12
  patients with increased ALT and GGT levels (each): five
  patients with increased AST levels: four
  patients with tremor (AE): four
[1]; extension phase, cirrhosis group, neutropenia, hepatolenticular degeneration
  patients with SAEs possibly related to WTX101: two
[1]; [4]
  patients who experienced AEs: nine
  patients with urinary tract infection: four
[1]; extension phase, without cirrhosis
  patients who experienced AEs: six
[1]; up to 48 weeks, patients with and without cirrhosis
  liver function: stable
[1]; week 24 to week 48, regardless of cirrhosis status
  ALT elevations requiring dose adjustments: no ALT elevations requiring dose adjustments occurred
[1]; weeks 0-48, with cirrhosis
  patients with severe adverse events (SAEs): four
[1]; weeks 0-48, without cirrhosis
  patients with severe adverse events (SAEs): six
[2]; baseline to week 24
  individuals with deterioration in dystonia item group score: three
  individuals with deterioration in gait item group score: six
  individuals with deterioration in rigidity item group score: four
[2]; baseline to week 24, SD 61.7
  mean improvement in UWDRS part III item group total tremor: 34.2%
[2]; baseline to week 24, SD 72.2
  mean improvement in UWDRS part III item group limb agility (dexterity) and coordination: 29.2%
[2]; baseline to week 24, SD 77.8
  overall deterioration in UWDRS part III item group gait: 4.2%
[2]; baseline to week 24, SD 135.2
  overall deterioration in UWDRS part III item group dystonia: 15.0%
[2]; baseline to week 24, SD 169.6
  overall deterioration in UWDRS part III item group rigidity: 26.9%
[2]; [5]
  patients with any deterioration in limb agility and coordination item group score: three
  patients with any deterioration in tremor item group score: four
[2]; over 24 weeks
  mean improvement (% change) in UWDRS part III item alternating hand movements: 35.0%
  mean improvement (% change) in UWDRS part III item handwriting: 51.4%
  mean improvement (% change) in UWDRS part III item leg agility: 40.8%
  mean improvement (% change) in UWDRS part III item postural arm tremor: 39.5%
